Assay results published in PubChem BioAssay AID330 (DTP/NCI, 2004).
Toxic doses and inconclusive results are not listed.

Test system: P388 leukemia ip, CD2F1 mice, survival T/C
Assay: NCI In Vivo Anticancer Drug Screen. Data for tumor model P388 Leukemia (intraperitoneal) in CD2F1 (CDF1) mice
Conditions: endpoint: median survival time, higher = longer survival
Outline: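 Mice carrying the transplanted tumor received test compound or vehicle. Survival was recorded in each group, and the value is the treated-group measurement divided by that of the vehicle-treated control group.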

[1] = dose: 50.0 mg/kg/injection, schedule: Q01DX005 (ip), vehicle: Klucel (hydroxypropylcellulose) (HPC)
[2] = dose: 100.0 mg/kg/injection, schedule: Q01DX005 (ip), vehicle: Klucel (hydroxypropylcellulose) (HPC)
[3] = dose: 200.0 mg/kg/injection, schedule: Q01DX005 (ip), vehicle: Klucel (hydroxypropylcellulose) (HPC)
[4] = dose: 50.0 mg/kg/injection, schedule: Q01DX009 (ip), vehicle: saline
[5] = dose: 100.0 mg/kg/injection, schedule: Q01DX009 (ip), vehicle: saline

`C=C(C)COc1ccc(C)cc1Br` was tested, and the T/C [1] was 101 % of control, the T/C [2] was 103 % of control and the T/C [3] was 113 % of control.

With `CCCS(=O)(=O)/C=C/C(=O)c1ccc2ccccc2c1` the T/C (dose: 100.0 mg/kg/injection, schedule: Q04DX003 (ip), vehicle: saline) was 105 % of control, the T/C (dose: 200.0 mg/kg/injection, schedule: Q04DX003 (ip), vehicle: saline) was 108 % of control and the T/C (dose: 400.0 mg/kg/injection, schedule: Q04DX003 (ip), vehicle: saline) was 106 % of control.

For `C/C(=N\O)c1cc(/C(C)=N/O)cc(/C(C)=N/O)c1`, the T/C [4] was 108 % of control and the T/C [5] was 92 % of control.

With `O=C1Nc2ccccc2S/C1=C\c1ccccc1C(F)(F)F` the T/C [4] was 108 % of control and the T/C [5] was 106 % of control.

`C=C1C(=O)O[C@H]2[C@@H]3O[C@@H]3C[C@@H]12` was tested, and the T/C (dose: 1.56 mg/kg/injection, schedule: Q01DX009 (ip), vehicle: water) was 105 % of control, the T/C (dose: 3.13 mg/kg/injection, schedule: Q01DX009 (ip), vehicle: water) was 97 % of control and the T/C (dose: 6.25 mg/kg/injection, schedule: Q01DX009 (ip), vehicle: water) was 99 % of control. The T/C (dose: 12.5 mg/kg/injection, schedule: Q01DX009 (ip), vehicle: water) was 100 % of control and the T/C (dose: 25.0 mg/kg/injection, schedule: Q01DX009 (ip), vehicle: water) was 109 % of control.

`O=C(O)C(O)C(O)C(O)C(O)CO.[Mn]` (stereo not drawn) was tested, and the T/C (dose: 50.0 mg/kg/injection, schedule: Q01DX009 (ip), vehicle: saline with Tween-80) was 113 % of control.

For `COC1=CC(=O)C(Cc2ccc(OC)cc2)=CC1=O`, the T/C (dose: 2.5 mg/kg/injection, schedule: Q01DX009 (ip), vehicle: saline with Tween-80) was 100 % of control, the T/C (dose: 5.0 mg/kg/injection, schedule: Q01DX009 (ip), vehicle: saline with Tween-80) was 100 % of control and the T/C (dose: 10.0 mg/kg/injection, schedule: Q01DX009 (ip), vehicle: saline with Tween-80) was 100 % of control.

In the case of `CC1(C)CC(=O)C=C(NCCO)C1`, the T/C (dose: 50.0 mg/kg/injection, schedule: Q01DX005 (ip), vehicle: saline) is reported as 96 % of control, the T/C (dose: 100.0 mg/kg/injection, schedule: Q01DX005 (ip), vehicle: saline) is reported as 91 % of control and the T/C (dose: 200.0 mg/kg/injection, schedule: Q01DX005 (ip), vehicle: saline) is reported as 96 % of control.

For `O=C(NC1CCCCC1C1CCC(Cl)CC1)c1ccccc1` (stereo not drawn), the T/C (dose: 50.0 mg/kg/injection, schedule: Q01DX005 (ip), vehicle: saline with Tween-80) was 89 % of control, the T/C (dose: 100.0 mg/kg/injection, schedule: Q01DX005 (ip), vehicle: saline with Tween-80) was 87 % of control and the T/C (dose: 200.0 mg/kg/injection, schedule: Q01DX005 (ip), vehicle: saline with Tween-80) was 87 % of control.

In the case of `NC(=S)N/N=C/Cn1ccc(=O)[nH]c1=O`, the T/C [1] is reported as 100 % of control, the T/C [2] is reported as 98 % of control and the T/C [3] is reported as 99 % of control.
